Measurements taken from patent US11896609B2, “Pharmaceutical composition for treating inflammatory diseases comprising germanium telluride nanosheets coated with polyvinylpyrrolidone” (Industry-Academic Cooperation Foundation, priority 2021, dated 2024).

Assays:
[1] = IVIS fluorescence imaging biodistribution after oral administration; assay type: in vivo, mice; details: 5 mg/kg oral, IVIS at 1, 6 and 24 hours
Description: After GeTe-PVP NSs (5 mg/kg, 100 μl) or an ICG solution (5 mg/kg, 200 μl) were orally administered, the mice were subjected to laparotomy at 1, 6, and 24 hours, and the biodistribution of GeTe-PVP NSs and the ICG solution was photographed with an in vivo imaging system (IVIS). Furthermore, the stomach, intestine, liver, lungs, pancreas, heart, and kidneys were removed at each time to confirm their biodistribution by fluorescence imaging with IVIS and quantify the amounts of GeTe-PVP NSs and ICG accumulated in each organ by FL intensity.

[2] = system: DSS-induced colitis model; assay: DSS-induced inflammatory bowel disease (colitis) model; assay type: in vivo, C57BL/6 mice
Description: 7- to 8-week-old male C57BL/6 mice (Orient Bio Inc.; Seongnam, Korea) were used for the experiments. Colitis was induced by allowing an acute inflammatory bowel disease model to ingest drinking water to which 2% dextran sodium sulfate (DSS; MP Biochemical, Irvine, Ca, USA) was added for 7 days. A normal control group was allowed to ingest the same amount of water for the same time (FIG. 19).
The experimental groups were classified into the following four groups (Table 1): a normal control group (Group 1, n=8), a group in which colitis is induced by DSS (Group 2, n=8), a group in which sulfasalazine (SAZ), which is a common therapeutic agent, was administered to a DSS-induced colitis model (Group 3, n=8, SAZ=200 mg/kg/day), and a group in which GeTe-PVP NSs were administered to a DSS-induced colitis model (Group 4, n=8, GeTe-PVP NS=5 mg/kg/day).
Body weight changes and the disease activity index (DAI) of mice were confirmed every day for 7 days. Each score of weight loss index (0 to 4; FIG. 20A), rectal bleeding observed with the naked eye in the stool or anus (0 to 3; FIG. 20C), and stool consistency (0 to 3; FIG. 20B) is summed to evaluate the disease activity index on a 10-point scale (FIG. 20D). [Stevceva L, Pavli P, Husband A, Ramsay A, Doe WF. Dextran sulphate sodium-induced colitis is ameliorated in interleukin 4 deficient mice. Genes Immun 2001; 2:309-316.] […]

Structure (SMILES)	time after administration until which a large amount remained in the intestine (FL intensity) [1] [h]	disease activity index (DAI) compared to DSS group (Group 2) ([2]; DSS colitis mice, SAZ 200 mg/kg/day, GeTe-PVP NS 5 mg/kg/day)	inflammatory findings (H&E, PAS staining) ([2]; proximal and distal regions of excised intestine)
CC1(C)C(/C=C/C=C/C=C/C=C2\N(CCCCS(=O)(=O)O)c3ccc4ccccc4c3C2(C)C)=[N+](CCCCS(=O)(=O)[O-])c2ccc3ccccc3c21 [ICG solution, Indocyanine green]	≤ 1	–	–
O=C(O)c1cc(/N=N/c2ccc(S(=O)(=O)Nc3ccccn3)cc2)ccc1O [sulfasalazine]	–	lower DAI compared to Group 2	many inflammatory findings were not found
